Experimental data from patent US20100168054A1, “Functionalized Beta 1,6 Glucosamine Disaccharides and Process for Their Preparation” (OM PHARMA, priority 2006, published 2010).
Entries after “also recorded” stand apart in the source; their conditions may differ.

Legend:
[1] = tested on: human peripheral blood mononuclear cells (PBMC); assay: IL-6 secretion by human PBMC (ELISA); format: cell-based; details: for IL6: 24 h; for IL-6 secretion (in words): 1, 5, 20 μg/ml
Description: Peripheral blood from healthy donors (Centre de transfusion, Hôpital Universitaire, Geneva) was centrifuged to get the buffy coat. The buffy coat was mixed with Hanks' balanced saline solution (HBSS, Sigma, Buchs, Switzerland), layered over Ficoll Paque Plus (Amersham Pharmacia) to 1.077 g/mL and centrifuged (2800 rpm, 20° C., 25 min). Cells harvested from the interphase were washed twice in HBSS at 800 rpm for 15 min at room temperature and the pelleted cells were resuspended in HBSS. The cell counts were performed using a Neubauer cell. All cell cultures were performed in RPMI-1640 medium supplemented with penicillin (100 U/mL), streptomycin (100 μg/mL), L-glutamine (2 mmol/L) and 10% fetal calf serum (FCS), all obtained from Sigma. For in vitro stimulation, the cells were cultured at a concentration of 1×10^6 viable cells/well.
PBMC were incubated at 37° C. and under 5% CO2 atmosphere with the controls (see below) and with the products of the invention at 1, 5, and 20 μg/mL for IL-6, and at 0.2, 2, and 20 μg/mL for TNF-α secretion. Medium: RPMI alone.
The surpernatants of the cultures were harvested after 24 h and the concentration of IL-6 and TNF-α were measured by an enzyme-linked immunosorbent assay (ELISA) (Human IL-6 and TNF-α ELISA Set, BD OptEIA, San Diego, USA), according to the manufacturer instructions. The detection limits were 10 and 8 pg/mL respectively.
PBMC are incubated at 37° C. and under 5% CO2 atmosphere with the products of the invention.
The supernatants of the cultures are harvested after 24 h and the concentration of IL-6 was measured by an enzyme-linked immunosorbent assay (ELISA) (Human IL-6 ELISA Set, BD OptEIA, San Diego, USA), according to the manufacturer instructions. The detection limit was 10 pg/mL.

TLR2 and CD14 = target: T1, TLR2 and CD14 (Homo sapiens, UniProt O60603); assay: HEK-TLR2-CD14 IL-8 secretion; format: cell-based; details: for IL-8 secretion, mean: 24 h; for activation of IL-8 secretion via TLR2 (in words): HEK-TLR2-CD14
T1 construct: expressed in transfected cells; host or cells: HEK (HEK-TLR2-CD14 cell line)
T1 sequence (O60603 21-784): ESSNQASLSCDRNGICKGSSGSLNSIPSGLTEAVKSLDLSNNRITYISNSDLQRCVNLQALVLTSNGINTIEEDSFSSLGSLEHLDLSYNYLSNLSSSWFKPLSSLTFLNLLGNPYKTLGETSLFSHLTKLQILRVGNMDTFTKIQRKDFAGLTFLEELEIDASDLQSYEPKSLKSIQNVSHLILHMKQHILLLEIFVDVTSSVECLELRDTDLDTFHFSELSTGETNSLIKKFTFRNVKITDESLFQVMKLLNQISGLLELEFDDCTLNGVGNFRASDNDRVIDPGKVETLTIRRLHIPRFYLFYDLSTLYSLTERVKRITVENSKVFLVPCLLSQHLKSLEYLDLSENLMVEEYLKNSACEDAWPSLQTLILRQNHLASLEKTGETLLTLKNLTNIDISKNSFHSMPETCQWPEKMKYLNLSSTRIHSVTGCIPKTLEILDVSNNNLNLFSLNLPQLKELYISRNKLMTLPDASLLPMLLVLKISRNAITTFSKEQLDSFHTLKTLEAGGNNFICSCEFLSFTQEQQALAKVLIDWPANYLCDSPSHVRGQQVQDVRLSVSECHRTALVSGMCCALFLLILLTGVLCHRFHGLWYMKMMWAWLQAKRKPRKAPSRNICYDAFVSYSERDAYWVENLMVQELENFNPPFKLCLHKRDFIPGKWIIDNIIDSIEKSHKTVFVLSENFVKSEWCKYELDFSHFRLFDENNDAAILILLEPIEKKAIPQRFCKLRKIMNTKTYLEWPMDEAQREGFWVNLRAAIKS
Description: (§1) The HEK293 cell line was chosen for its null or low basal expression of the TLR genes. These cells enable efficient monitoring of TLR activity using ELISA analysis such as IL-8 titration or reporter-based systems that monitor TLR-induced NF-κB activation. HEK-TLR2 cells (Invivogen, Toulouse, France) are engineered HEK293 cells stably transfected with multiple genes from the TLR2 pathway that include TLR2 and genes participating in the recognition or involved in the signaling cascade. These cells secrete IL-8 after TLR2 stimulation. The experiments were performed according to manufacturers' instructions. Briefly, 2×10^4 cells/well (200 ul RPMI) are incubated at 37° C. during 3 days (5% CO2). The medium is removed, and 90 ul RPMi+5% FCS is added to the wells Then the agonists and controls are added (10 ul/well). The cells return to the incubator for 24 hours. The supernatants are collected and the IL-8 ELISA is performed according to manufacturer's instructions These preliminary results were confirmed in another cell line expressing concomitantly TLR2 and CD14. The procedure used is similar to the one described just above.

[2] = tested on: THP1-Blue cells (express naturally both TLR2 and TLR4); assay: THP1-Blue NF-κB/AP-1-inducible SEAP reporter; format: cell-based, human; details: for Optical density read at 625 nm, mean of duplicates: 48 h
Description: A first series of experiment was performed on THP-1 cells, which express naturally both TLR2 and TLR4. THP-1 cells are human peripheral blood monocytic cells. Monocytes play a key role in innate immunity and express most TLRs at various levels. As for the primary cells, THP-1 cells activate NF-κB and other transcription factors in response to TLR ligands
To facilitate analysis of TLR response in monocytes, InvivoGen (Toulouse, France) provides THP-1 clones stably transfected with an NF-κB-inducible reporter system, called THP1-Blue™. THP-1 Blue cells were stably transfected with a reporter plasmid expressing a secreted embryonic alkaline phosphatase (SEAP) gene under the control of a promoter inducible by several transcription factors such as NF-κB and AP-1. Upon TLR stimulation, THP1-Blue™ cells activate transcription factors and subsequently the secretion of SEAP which is easily detectable when using QUANTI-Blue\u2122a medium that turns purple/blue in the presence of SEAP.
The cells were stimulated with the controls and compounds of the invention according to manufacturer's instructions. Results: Increased OD at 625 Nm after 48 Hours: The results for the controls (negative=LPS K12CD25 ultrapure, a TLR4 agonist; and PAM3CSK4=positive, a TLR2 agonist) are provided in the table below. The results (expressed as OD of arbitrary units) show the mean values (from duplicate measures) of Optical density read at 625 nm, 48 h after stimulation at 37° C. with the controls (up to 1000 ng/ml): […]

TLR2 = target: T2, TLR2 (Homo sapiens, UniProt O60603); assay: HEK-TLR2 IL-8 secretion; format: cell-based; details: for IL-8 secretion, mean: 24 h; for activation of IL-8 secretion via TLR2 (in words): HEK-TLR2
T2 construct: host or cells: HEK293
T2 sequence (O60603 21-784): as above
Description: as §1, with “instructions” for “instructions These preliminary results were confirmed in another cell line expressing concomitantly TLR2 and CD14. The procedure used is similar to the one described just above.”

IL-8 secretion, mean (TLR2 and CD14; 14 ng/ml) [pg/mL]	IL-8 secretion, mean (TLR2 and CD14; 41 ng/ml) [pg/mL]	IL-8 secretion, mean (TLR2 and CD14; 124 ng/ml) [pg/mL]	IL-8 secretion, mean (TLR2 and CD14; 370 ng/ml) [pg/mL]	IL-8 secretion, mean (TLR2 and CD14; 1111 ng/ml) [pg/mL]	IL-8 secretion, mean (TLR2 and CD14; 3333 ng/ml) [pg/mL]	IL-8 secretion, mean (TLR2 and CD14; 10000 ng/ml) [pg/mL]	IL-8 secretion, mean (TLR2; 14 ng/ml) [pg/mL]	Compound	IL6 ([1]; 1 μg/ml) [pg/mL]	IL6 ([1]; 5 μg/ml) [pg/mL]	IL6 ([1]; 20 μg/ml) [pg/mL]	IL-6 secretion (in words) [1]	activation of THP-1 cells (in words) [2]	Optical density read at 625 nm, mean of duplicates ([2]; 14 ng/ml) [OD]	Optical density read at 625 nm, mean of duplicates ([2]; 41 ng/ml) [OD]	Optical density read at 625 nm, mean of duplicates ([2]; 124 ng/ml) [OD]	Optical density read at 625 nm, mean of duplicates ([2]; 370 ng/ml) [OD]	Optical density read at 625 nm, mean of duplicates ([2]; 1111 ng/ml) [OD]	Optical density read at 625 nm, mean of duplicates ([2]; 3333 ng/ml) [OD]	Optical density read at 625 nm, mean of duplicates ([2]; 10000 ng/ml) [OD]	other results
								CCCCCCCCCCCC(=O)O[C@H](CCCCCCCCCCC)CC(=O)NC1C(OCC2OC(OP(=O)(O)O)C(NC(=O)C[C@H](O)CCCCCCCCCCC)C(O)C2O)OC(CO)C(OP(=O)(O)O)C1O (stereo partly drawn) [compound 1b, 2-Deoxy-6-O-[2-deoxy-4-O-(dihydroxyphosphoryl)-2-[(R)-3-dodecanoyloxytetradecanoylamino]-β-D-glucopyranosyl]-2-[(R)-3-hydroxytetradecanoylamino]-α-D-glucopyranosyl dihydrogenophosphate]	20.2	57.1	225.5	higher levels of IL-6; also recorded: able to induce IL-6 secretion									
0.03	0.00	0.03	0.01	0.06	0.13	0.22	0.07	CCCCCCCCCCCC(=O)O[C@H](CCCCCCCCCCC)CC(=O)N[C@H]1[C@H](OC[C@H]2O[C@H](O)[C@H](NC(=O)C[C@H](O)CCCCCCCCCCC)[C@@H](O)[C@@H]2O)O[C@H](CO)[C@@H](OP(=O)(O)O)[C@@H]1O [compound 16, 2-Deoxy-6-O-[2-deoxy-4-O-(dihydroxyphosphoryl)-2-[(R)-3-dodecanoyloxytetradecanoylamino]-β-D-glucopyranosy]-2-[(R)-3-hydroxytetradecanoylamino]-α-D-glucopyranose]	81.1	473.3	1348.2	able to induce IL-6 secretion	weaker	0.15	0.13	0.15	0.16	0.17	0.18	0.22	IL-8 secretion, mean (TLR2; 41 ng/ml): 0.09 pg/mL; IL-8 secretion, mean (TLR2; 124 ng/ml): 0.15 pg/mL; IL-8 secretion, mean (TLR2; 370 ng/ml): 0.12 pg/mL; IL-8 secretion, mean (TLR2; 1111 ng/ml): 0.15 pg/mL; IL-8 secretion, mean (TLR2; 3333 ng/ml): 0.19 pg/mL; IL-8 secretion, mean (TLR2; 10000 ng/ml): 0.27 pg/mL; IL-6 induced ([1]; up to, doses to 20 μg/ml): up to 1348 μg/ml
0.13	0.14	0.20	0.22	0.40	1.06	3.59	0.19	CCCCCCCCCCCC(=O)O[C@H](CCCCCCCCCCC)CC(=O)N[C@H]1[C@H](OC[C@H]2O[C@H](OCCC)[C@H](NC(=O)C[C@H](O)CCCCCCCCCCC)[C@@H](O)[C@@H]2O)O[C@H](CO)[C@@H](OP(=O)(O)O)[C@@H]1O [compound 17, Propyl-2-Deoxy-6-O-[2-deoxy-4-O-(dihydroxyphosphoryl)-2-[(R)-3-dodecanoyloxytetradecanoylamino]-β-D-glucopyranosyl]-2-[(R)-3-hydroxytetradecanoylamino]-α-D-glucopyranoside]	171.6	447.6	752.4	able to induce IL-6 secretion	good activators of THP-1 cells	0.13	0.15	0.19	0.36	0.74	1.02	1.15	activation of IL-8 secretion via TLR2 (in words) (TLR2 and CD14): able to activate IL-8 secretion via TLR2; IL-8 secretion, mean (TLR2; 41 ng/ml): 0.20 pg/mL; IL-8 secretion, mean (TLR2; 124 ng/ml): 0.24 pg/mL; IL-8 secretion, mean (TLR2; 370 ng/ml): 0.25 pg/mL; IL-8 secretion, mean (TLR2; 1111 ng/ml): 0.39 pg/mL; IL-8 secretion, mean (TLR2; 3333 ng/ml): 0.88 pg/mL; IL-8 secretion, mean (TLR2; 10000 ng/ml): 2.02 pg/mL; activation of IL-8 secretion via TLR2 (in words) (TLR2): able to activate IL-8 secretion via TLR2
0.10	0.03	0.17	0.19	0.52	1.49	4.24	0.12	CCCCCCCCCCCC(=O)O[C@H](CCCCCCCCCCC)CC(=O)N[C@H]1[C@H](OC[C@H]2O[C@H](OCCOP(=O)(O)O)[C@H](NC(=O)C[C@H](O)CCCCCCCCCCC)[C@@H](O)[C@@H]2O)O[C@H](CO)[C@@H](OP(=O)(O)O)[C@@H]1O [compound 33, 2-(Phosphonooxy)ethyl-2-Deoxy-6-O-[2-deoxy-4-O-(dihydroxyphosphoryl)-2-[(R)-3-dodecanoyloxytetradecanoylamino]-β-D-glucopyranosyl]-2-[(R)-3-hydroxytetradecanoylamino]-α-D-glucopyranoside]					weaker	0.13	0.12	0.13	0.16	0.19	0.25	0.35	activation of IL-8 secretion via TLR2 (in words) (TLR2 and CD14): able to activate IL-8 secretion via TLR2; IL-8 secretion, mean (TLR2; 41 ng/ml): 0.18 pg/mL; IL-8 secretion, mean (TLR2; 124 ng/ml): 0.23 pg/mL; IL-8 secretion, mean (TLR2; 370 ng/ml): 0.31 pg/mL; IL-8 secretion, mean (TLR2; 1111 ng/ml): 0.68 pg/mL; IL-8 secretion, mean (TLR2; 3333 ng/ml): 1.66 pg/mL; IL-8 secretion, mean (TLR2; 10000 ng/ml): 3.64 pg/mL; activation of IL-8 secretion via TLR2 (in words) (TLR2): able to activate IL-8 secretion via TLR2
